The source made the active and inactive calls. Rule as the data show it, for most assays here: actives have a measured Kd and inactives only a lower limit.

The target in assay [1] is Cyclin-dependent kinase 12 (Homo sapiens, UniProt Q9NYV4).
For assay [2], the target named is T1, Serine/threonine-protein kinase ICK (Homo sapiens, UniProt Q9UPZ9).
T1 sequence (Q9UPZ9 whole entry): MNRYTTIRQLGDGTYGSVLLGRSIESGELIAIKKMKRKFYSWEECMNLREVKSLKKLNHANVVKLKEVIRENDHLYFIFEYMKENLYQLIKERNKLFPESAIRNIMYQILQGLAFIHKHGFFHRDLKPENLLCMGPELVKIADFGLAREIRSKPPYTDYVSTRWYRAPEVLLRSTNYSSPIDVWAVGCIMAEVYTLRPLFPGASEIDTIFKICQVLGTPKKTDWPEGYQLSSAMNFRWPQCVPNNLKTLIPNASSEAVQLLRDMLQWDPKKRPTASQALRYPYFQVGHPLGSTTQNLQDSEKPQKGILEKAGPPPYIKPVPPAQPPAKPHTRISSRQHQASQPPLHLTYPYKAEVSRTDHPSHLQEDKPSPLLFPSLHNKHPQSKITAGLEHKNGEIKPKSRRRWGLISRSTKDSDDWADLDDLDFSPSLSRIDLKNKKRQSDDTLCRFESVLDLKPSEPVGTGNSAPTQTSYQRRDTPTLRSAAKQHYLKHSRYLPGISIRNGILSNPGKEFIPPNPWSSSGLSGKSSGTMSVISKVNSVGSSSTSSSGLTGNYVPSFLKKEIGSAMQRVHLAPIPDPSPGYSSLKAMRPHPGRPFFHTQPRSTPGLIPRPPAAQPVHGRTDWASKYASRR

In assay [3] the target is Mitotic checkpoint serine/threonine-protein kinase BUB1 (Homo sapiens, UniProt O43683).
For assay [4], the target named is T2, Ras-related protein Rab-27A (Homo sapiens, UniProt P51159).
T2 sequence (P51159 whole entry): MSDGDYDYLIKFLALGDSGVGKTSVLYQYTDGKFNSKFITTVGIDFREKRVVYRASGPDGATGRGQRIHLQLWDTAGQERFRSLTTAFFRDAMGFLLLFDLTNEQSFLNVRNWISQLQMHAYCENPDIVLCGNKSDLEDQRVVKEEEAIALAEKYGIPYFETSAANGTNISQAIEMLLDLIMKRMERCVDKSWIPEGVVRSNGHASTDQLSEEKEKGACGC

In assay [5] the target is Protein-tyrosine kinase 2-beta (Homo sapiens, UniProt Q14289).
Sequence of Protein-tyrosine kinase 2-beta (Q14289 whole entry): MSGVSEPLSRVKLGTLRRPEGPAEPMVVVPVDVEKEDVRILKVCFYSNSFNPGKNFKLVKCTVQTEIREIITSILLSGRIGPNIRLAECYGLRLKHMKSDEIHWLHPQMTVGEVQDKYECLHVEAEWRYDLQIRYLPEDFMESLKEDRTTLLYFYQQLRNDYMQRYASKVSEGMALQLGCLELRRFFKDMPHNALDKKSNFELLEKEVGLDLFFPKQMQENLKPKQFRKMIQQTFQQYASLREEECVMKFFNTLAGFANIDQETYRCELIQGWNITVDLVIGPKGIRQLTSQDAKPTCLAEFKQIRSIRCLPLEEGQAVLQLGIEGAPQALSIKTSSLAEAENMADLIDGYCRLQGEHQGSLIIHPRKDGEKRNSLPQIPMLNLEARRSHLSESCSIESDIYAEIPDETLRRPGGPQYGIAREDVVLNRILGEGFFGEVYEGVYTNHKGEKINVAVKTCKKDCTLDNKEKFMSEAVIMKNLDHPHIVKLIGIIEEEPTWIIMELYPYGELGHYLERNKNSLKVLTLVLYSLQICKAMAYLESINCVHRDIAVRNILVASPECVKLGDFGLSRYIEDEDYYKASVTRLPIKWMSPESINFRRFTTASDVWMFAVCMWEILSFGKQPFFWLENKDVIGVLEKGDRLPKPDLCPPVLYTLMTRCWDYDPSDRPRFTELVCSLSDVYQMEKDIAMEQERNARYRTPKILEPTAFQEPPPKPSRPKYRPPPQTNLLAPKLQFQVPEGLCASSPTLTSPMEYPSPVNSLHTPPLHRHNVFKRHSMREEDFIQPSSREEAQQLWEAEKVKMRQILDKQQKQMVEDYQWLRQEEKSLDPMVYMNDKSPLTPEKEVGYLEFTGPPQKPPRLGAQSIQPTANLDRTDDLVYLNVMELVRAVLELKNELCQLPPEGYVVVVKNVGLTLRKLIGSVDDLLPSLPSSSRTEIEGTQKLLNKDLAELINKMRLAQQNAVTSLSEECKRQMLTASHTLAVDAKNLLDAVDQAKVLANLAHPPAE
Assay [6] concerns the target Tyrosine-protein kinase Fer (Homo sapiens, UniProt P16591).
Assay [7] deals with T3, Mitogen-activated protein kinase kinase kinase kinase 3 (Homo sapiens, UniProt Q8IVH8).
T3 sequence (Q8IVH8 whole entry): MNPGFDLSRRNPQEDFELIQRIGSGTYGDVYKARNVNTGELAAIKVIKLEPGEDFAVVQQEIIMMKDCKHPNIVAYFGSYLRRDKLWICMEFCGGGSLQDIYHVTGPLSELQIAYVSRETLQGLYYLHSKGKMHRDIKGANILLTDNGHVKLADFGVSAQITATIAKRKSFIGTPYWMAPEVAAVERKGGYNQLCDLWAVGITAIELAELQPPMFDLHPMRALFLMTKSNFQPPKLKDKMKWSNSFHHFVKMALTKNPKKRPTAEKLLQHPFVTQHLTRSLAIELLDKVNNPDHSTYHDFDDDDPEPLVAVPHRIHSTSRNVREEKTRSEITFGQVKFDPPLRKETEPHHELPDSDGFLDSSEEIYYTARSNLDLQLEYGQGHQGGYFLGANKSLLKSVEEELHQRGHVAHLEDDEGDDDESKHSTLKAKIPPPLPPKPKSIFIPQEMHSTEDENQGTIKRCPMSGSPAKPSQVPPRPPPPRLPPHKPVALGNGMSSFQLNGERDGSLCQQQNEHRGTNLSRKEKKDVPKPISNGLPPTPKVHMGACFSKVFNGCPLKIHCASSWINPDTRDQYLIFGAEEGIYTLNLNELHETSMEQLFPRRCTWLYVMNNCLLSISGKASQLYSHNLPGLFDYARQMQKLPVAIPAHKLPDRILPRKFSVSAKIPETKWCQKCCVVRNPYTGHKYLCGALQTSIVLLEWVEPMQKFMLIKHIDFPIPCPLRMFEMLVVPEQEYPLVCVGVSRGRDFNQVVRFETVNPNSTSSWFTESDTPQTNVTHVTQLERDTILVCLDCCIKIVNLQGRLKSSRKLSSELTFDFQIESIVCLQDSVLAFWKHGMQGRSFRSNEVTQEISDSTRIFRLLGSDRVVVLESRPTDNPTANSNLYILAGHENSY

In assay [8] the target is Tyrosine-protein kinase JAK1 (Homo sapiens, UniProt P23458).
Sequence of Tyrosine-protein kinase JAK1 (P23458 whole entry): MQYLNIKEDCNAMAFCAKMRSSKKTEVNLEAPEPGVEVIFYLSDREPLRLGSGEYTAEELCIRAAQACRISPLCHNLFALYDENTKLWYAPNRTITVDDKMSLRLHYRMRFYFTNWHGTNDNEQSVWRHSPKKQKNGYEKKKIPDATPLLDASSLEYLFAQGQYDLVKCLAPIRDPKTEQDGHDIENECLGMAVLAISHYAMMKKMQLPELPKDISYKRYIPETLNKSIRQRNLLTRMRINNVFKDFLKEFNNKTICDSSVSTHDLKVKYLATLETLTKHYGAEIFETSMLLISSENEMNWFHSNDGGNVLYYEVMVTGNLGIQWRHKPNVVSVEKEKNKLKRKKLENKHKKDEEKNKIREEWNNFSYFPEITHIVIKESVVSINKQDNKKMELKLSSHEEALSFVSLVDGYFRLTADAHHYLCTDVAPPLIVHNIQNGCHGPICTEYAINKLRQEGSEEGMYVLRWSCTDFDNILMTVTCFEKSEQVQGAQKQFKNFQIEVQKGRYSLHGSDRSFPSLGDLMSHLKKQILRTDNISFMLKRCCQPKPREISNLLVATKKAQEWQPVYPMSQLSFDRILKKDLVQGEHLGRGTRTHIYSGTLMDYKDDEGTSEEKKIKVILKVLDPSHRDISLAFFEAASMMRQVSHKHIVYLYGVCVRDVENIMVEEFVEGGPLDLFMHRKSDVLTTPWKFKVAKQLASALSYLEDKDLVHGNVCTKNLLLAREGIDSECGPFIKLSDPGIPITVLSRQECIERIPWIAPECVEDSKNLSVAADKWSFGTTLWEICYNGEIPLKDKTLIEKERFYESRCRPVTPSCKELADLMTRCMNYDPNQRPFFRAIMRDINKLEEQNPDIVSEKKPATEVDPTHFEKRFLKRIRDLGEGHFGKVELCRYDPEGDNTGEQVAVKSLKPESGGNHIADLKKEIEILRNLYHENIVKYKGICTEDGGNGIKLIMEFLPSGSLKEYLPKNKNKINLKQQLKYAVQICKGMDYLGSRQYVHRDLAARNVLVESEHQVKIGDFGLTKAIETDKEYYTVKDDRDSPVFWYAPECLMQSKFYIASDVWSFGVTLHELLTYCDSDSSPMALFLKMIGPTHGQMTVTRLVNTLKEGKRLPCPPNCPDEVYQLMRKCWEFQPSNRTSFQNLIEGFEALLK
The target of assay [9] is Non-receptor tyrosine-protein kinase TYK2 (Homo sapiens, UniProt P29597).
Sequence of Non-receptor tyrosine-protein kinase TYK2 (P29597 whole entry): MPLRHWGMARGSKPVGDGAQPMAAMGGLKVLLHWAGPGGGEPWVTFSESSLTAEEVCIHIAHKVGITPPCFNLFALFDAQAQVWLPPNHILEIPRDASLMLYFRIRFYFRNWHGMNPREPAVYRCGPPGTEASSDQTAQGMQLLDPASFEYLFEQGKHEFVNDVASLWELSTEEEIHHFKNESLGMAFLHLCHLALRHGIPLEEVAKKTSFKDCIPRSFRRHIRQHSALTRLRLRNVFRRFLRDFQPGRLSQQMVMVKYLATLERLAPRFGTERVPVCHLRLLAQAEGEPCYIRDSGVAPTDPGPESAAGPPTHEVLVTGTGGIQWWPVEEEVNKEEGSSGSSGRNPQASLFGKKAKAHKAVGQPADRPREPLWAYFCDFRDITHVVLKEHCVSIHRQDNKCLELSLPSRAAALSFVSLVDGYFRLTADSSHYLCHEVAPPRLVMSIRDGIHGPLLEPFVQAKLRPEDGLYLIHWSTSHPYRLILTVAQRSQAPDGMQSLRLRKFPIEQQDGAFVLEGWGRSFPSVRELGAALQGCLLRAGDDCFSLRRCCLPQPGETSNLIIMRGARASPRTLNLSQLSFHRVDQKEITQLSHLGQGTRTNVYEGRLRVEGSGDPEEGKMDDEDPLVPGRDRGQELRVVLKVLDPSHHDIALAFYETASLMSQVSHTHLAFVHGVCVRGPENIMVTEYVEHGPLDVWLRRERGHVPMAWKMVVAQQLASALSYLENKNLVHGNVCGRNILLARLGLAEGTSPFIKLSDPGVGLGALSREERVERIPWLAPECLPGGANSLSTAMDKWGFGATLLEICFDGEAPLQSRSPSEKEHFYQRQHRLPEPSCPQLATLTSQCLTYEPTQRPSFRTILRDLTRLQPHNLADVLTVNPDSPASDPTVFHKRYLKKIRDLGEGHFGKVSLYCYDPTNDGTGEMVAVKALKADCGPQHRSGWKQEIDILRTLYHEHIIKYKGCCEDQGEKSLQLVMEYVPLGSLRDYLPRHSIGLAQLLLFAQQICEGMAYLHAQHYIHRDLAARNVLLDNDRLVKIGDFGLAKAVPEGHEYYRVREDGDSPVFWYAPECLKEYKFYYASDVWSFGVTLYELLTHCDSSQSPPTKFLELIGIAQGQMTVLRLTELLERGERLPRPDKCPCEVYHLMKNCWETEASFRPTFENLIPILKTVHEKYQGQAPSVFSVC
Assay [10] addresses T4, ATP-dependent RNA helicase DDX1 (Homo sapiens, UniProt Q92499).
T4 sequence (Q92499 whole entry): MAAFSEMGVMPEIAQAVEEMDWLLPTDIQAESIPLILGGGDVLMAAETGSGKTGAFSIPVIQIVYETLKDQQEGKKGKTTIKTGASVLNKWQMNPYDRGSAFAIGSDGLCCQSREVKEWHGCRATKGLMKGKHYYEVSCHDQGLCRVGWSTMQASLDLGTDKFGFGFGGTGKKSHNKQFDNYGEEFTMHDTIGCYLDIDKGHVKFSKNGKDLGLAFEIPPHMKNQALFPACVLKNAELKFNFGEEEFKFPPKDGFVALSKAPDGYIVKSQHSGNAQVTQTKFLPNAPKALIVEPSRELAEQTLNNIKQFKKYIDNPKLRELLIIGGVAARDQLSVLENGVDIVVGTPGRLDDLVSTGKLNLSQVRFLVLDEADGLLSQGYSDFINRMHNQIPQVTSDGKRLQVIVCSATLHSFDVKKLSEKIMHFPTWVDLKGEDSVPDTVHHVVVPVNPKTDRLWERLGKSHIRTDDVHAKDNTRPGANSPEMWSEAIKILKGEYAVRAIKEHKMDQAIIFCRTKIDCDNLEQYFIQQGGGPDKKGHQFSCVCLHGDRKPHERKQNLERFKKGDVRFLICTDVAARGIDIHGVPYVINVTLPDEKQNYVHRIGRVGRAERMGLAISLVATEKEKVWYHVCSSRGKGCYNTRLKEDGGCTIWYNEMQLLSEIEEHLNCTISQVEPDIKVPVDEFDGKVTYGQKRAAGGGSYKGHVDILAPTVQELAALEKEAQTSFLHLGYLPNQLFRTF

For assay [11], the target named is cAMP-dependent protein kinase catalytic subunit beta (Homo sapiens, UniProt P22694).
Assay [12] deals with Casein kinase I isoform delta (Homo sapiens, UniProt P48730).
Sequence of Casein kinase I isoform delta (P48730 whole entry, canonical isoform): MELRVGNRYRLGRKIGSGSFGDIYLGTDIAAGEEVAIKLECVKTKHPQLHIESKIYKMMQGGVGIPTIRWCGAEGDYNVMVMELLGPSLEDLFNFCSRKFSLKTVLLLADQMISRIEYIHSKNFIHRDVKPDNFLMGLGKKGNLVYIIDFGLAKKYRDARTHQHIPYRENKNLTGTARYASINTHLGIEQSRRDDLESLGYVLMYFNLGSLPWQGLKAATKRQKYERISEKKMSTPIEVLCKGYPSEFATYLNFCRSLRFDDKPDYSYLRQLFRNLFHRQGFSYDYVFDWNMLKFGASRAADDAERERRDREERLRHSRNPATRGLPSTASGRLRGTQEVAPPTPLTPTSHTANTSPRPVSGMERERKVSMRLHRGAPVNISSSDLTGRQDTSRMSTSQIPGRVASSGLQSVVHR
Also: in the data inactive means no Kd found up to 30 µM.

Sequence of Tyrosine-protein kinase Fer (P16591 whole entry): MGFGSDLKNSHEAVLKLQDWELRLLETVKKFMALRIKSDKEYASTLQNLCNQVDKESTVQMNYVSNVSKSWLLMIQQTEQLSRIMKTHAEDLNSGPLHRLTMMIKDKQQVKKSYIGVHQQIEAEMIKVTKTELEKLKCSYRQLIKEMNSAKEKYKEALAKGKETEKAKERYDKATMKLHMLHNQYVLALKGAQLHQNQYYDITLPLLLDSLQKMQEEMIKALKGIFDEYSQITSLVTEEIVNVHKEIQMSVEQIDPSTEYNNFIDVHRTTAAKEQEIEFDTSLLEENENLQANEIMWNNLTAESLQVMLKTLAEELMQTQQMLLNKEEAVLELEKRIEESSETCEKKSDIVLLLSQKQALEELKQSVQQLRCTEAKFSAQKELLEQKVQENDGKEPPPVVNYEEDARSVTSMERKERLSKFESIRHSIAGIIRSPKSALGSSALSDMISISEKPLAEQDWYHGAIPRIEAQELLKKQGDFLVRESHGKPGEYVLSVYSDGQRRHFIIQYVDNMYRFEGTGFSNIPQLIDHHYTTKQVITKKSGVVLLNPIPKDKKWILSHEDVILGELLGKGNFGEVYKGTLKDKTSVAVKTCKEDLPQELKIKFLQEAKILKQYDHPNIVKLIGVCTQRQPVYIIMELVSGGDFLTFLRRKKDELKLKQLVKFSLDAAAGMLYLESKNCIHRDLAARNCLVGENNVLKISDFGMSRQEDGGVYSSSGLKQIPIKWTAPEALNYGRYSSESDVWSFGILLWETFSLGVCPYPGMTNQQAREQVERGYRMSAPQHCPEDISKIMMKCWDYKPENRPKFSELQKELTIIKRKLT

In the case of `C[C@@H]1CN(Cc2ccc(F)cc2)[C@@H](C)CN1C(=O)c1cc2c(C(=O)C(=O)N(C)C)cn(C)c2cc1Cl` [TALMAPIMOD], the Kd in assay [1], in [2], in [3], in [4], in assay [5] and in [6] was > 30 µM (inactive) throughout. In addition, the Kd in assay [7], in [8], in [9], in [10], in assay [11] and in [12] was > 30 µM (inactive) throughout.

In the case of `COc1ccc(-c2ccc3c(N4CCOC[C@@H]4C)nc(N4CCOC[C@@H]4C)nc3n2)cc1CO` [AZD-8055], the Kd in [1], in assay [2], in assay [3], in assay [4], in [5] and in assay [6] was > 30 µM (inactive) in each case. In addition, the Kd in assay [7], in assay [8], in [9], in assay [10], in assay [11] and in assay [12] was > 30 µM (inactive) throughout.

Turning to `CN1CC[C@@H](c2c(O)cc(O)c3c(=O)cc(-c4ccccc4Cl)oc23)[C@@H]1CO`, the Kd in assay [1] was 3.16 µM (active); in assay [2], 0.892 µM (active); in assay [3] it was > 30 µM (inactive); in assay [4], > 30 µM (inactive); in [5], > 30 µM (inactive); in [6] it was > 30 µM (inactive). For the same molecule, the Kd in assay [7], in assay [8], in assay [9], in [10], in [11] and in assay [12] was > 30 µM (inactive) in each case.

For the molecule `Cn1cc(-c2ccc3nnc(C(F)(F)c4ccc5ncccc5c4)n3n2)cn1` [JNJ-38877605], the Kd in [1], in assay [2], in assay [3], in [4], in assay [5] and in assay [6] was > 30 µM (inactive) throughout. The Kd in assay [7], in assay [8], in assay [9], in assay [10], in assay [11] and in assay [12] was > 30 µM (inactive) in each case.

On to `Cc1ccc(-n2nc(C(C)(C)C)cc2NC(=O)NCc2cc(F)ccc2Oc2ccc3c(cnn3CCO)c2)cc1` [PEXMETINIB], for which the Kd in assay [1] was > 30 µM (inactive); in assay [2], > 30 µM (inactive); in [3], > 30 µM (inactive); in assay [4], > 30 µM (inactive); in assay [5], 30.4 µM (active); in [6], > 30 µM (inactive). The Kd in assay [7], in assay [8], in [9], in assay [10], in assay [11] and in assay [12] was > 30 µM (inactive) each time.

Regarding `Cc1c(F)cc(C(=O)NC2CC2)cc1-c1ccc(C(=O)NCC(C)(C)C)cn1` [LOSMAPIMOD], the Kd is > 30 µM (inactive) in assay [1]; > 30 µM (inactive) in [2]; 1.92 µM in assay [3]; > 30 µM (inactive) in [4]; > 30 µM (inactive) in [5]; > 30 µM (inactive) in assay [6]. The Kd in [7], in assay [8], in [9], in assay [10], in assay [11] and in assay [12] was > 30 µM (inactive) in each case.

Turning to `COc1cc(N2CCC(N3CCN(C)CC3)CC2)ccc1Nc1ncnc(Nc2ccccc2S(=O)(=O)C(C)C)n1` [ASP-3026], the Kd was > 30 µM (inactive) in [1]; > 30 µM (inactive) in assay [2]; > 30 µM (inactive) in assay [3]; > 30 µM (inactive) in [4]; 0.273 µM (active) in assay [5]; 0.363 µM (active) in [6]. For the same molecule, the Kd in assay [7], in assay [8], in [9], in assay [10], in assay [11] and in assay [12] was > 30 µM (inactive) throughout.

In the case of `CNC(=O)c1ccc(-c2cnc3ncc(Cc4ccc5ncccc5c4)n3n2)cc1F` [CAPMATINIB], the Kd in assay [1], in assay [2], in assay [3], in assay [4], in [5] and in assay [6] was > 30 µM (inactive) each time. Further, the Kd in [7], in assay [8], in assay [9], in assay [10], in [11] and in [12] was > 30 µM (inactive) each time.

In the case of `C[C@@H](Nc1cc(F)cc(F)c1)c1cc(C(=O)N(C)C)cc2c(=O)cc(N3CCOCC3)oc12` [AZD-8186], the Kd in assay [1], in assay [2], in [3], in assay [4], in assay [5] and in assay [6] was > 30 µM (inactive) each time. Also, the Kd in [7], in assay [8], in [9], in assay [10], in assay [11] and in assay [12] was > 30 µM (inactive) in each case.

A word on the Kd: it is the free concentration of one partner at which half of the binding sites on the other are occupied at equilibrium, for simple one-to-one binding.

These data come from ChEMBL document CHEMBL3991601, “The target landscape of clinical kinase drugs” (Science, 2017).
